How the values were obtained:
primary lung fibroblasts = assay: [3H]glucose uptake; assay type: cell-based, human; conditions: C0105 0.1-5 nM, other compounds 1 or 5 nM; 4 days
Procedure: (§1) FIG. 1A through FIG. 1M illustrate the effects of various FLNA-binding compounds on glucose uptake in glioblastoma, melanoma, breast and pancreatic cancer cell lines, along with appropriate non-cancerous primary cell controls. Cells were grown in the absence or presence of 0.1-5 nM indicated compounds for 4 days. Following brief washes with PBS, cells were serum-deprived for 4 hours and then incubated in oxygenated Kreb's Ringer containing 0.1 μCi [^3H]glucose for 2 hours under constant oxygenation. The reaction was terminated by removal of the incubation medium, and cells were washed and scraped off to determine the amounts of [^3H]glucose in cells by scintillation spectrometry. […] N=5-6. […] . […] . To determine the effect of Compound C0105 on glucose utilization, the cancer and primary normal cells were plated extremely thinly (10%). Once cells attached, Compound C0105 was added at 0.1, 0.5, 1 or 5 nM in the medium twice daily (6 hours apart) for 4 days. The cells were serum-deprived (glucose deprived) for 2 hours. Cells were then rinsed with 1 ml PBS and glucose uptake was assessed by contacting the cells with [^3H]glucose (0.01 uCi/l ml) in Kreb's Ringer for 2 hours. Cells were then rinsed with 1 ml PBS 3 times, scraped off and their glucose content counted by liquid scintillation spectrophotometry.
Both glioblastoma and melanoma cells were plated extremely thinly. Once cells attached, Compound C0105 was added at 0.1, 0.5, 1 and 5 nM, whereas the other compounds were present at 1 and 5 nM in the medium twice daily (6 hours apart) for 4 days. The cells were serum-deprived (glucose deprived) for 2 hours. Cells were then rinsed with 1 ml PBS and glucose uptake was assessed by contacting the cells with [3H]glucose (0.01 uCi/l ml) of Kreb's Ringer for 2 hours. Cells were then rinsed with 1 ml PBS 3 times, scraped off and their glucose contents counted by liquid scintillation spectrophotometry.

[1] = test system: human mammalian epithelial cells (HMEC); assay: [3H]glucose uptake; assay type: cell-based; conditions: 0.1-5 nM; 4 days
Procedure: as §1

[2] = test system: primary human pancreatic epithelial cells; assay: [3H]glucose uptake; assay type: cell-based; conditions: 0.1-5 nM; 4 days
Procedure: as §1

melanoma cells = assay: Glucose deprivation-induced apoptosis markers (cleaved PARP-1, caspase-3) by Western blotting; assay type: cell-based, human; conditions: 1 nM; Day 3 and 4
Procedure: . Cell density was assessed at day 3 and 4. […] . Data are mean±S.E.M. of ratios (FIG. 4B) and % inhibition (FIG. 4C). […] N=5. *p<0.01 compared to Day 0. #p<0.01 compared to vehicle (open bars).
. The cells were washed with PBS, incubated in 0.1% fetal bovine serum (FBS) for 16 hours and incubated in glucose-free 0.1% FBS-containing medium for up to 4 days in the presence of vehicle or 1 nM Compound C0105. The cells in the entire well were collected by centrifugation. […] The protein concentrations were measured by the Bradford method.
The cells were homogenized and the obtained homogenates were centrifuged to remove nucleus and mitochondria. […] The level of apoptotic cell death was determined using Western blotting in 50 μg solubilized cell lysates with antibodies against cleaved PARP-1 (Asp^214) and caspase-3 (Asp^175), both at 1:1000 dilution. […] Bands at the relevant molecular masses of Ki67 and PCNA were quantified by densitometric scan. Membranes were stripped, washed 5× in 0.1% PBST (2 minutes each wash) and the actin content analyzed by immunoblotting using monoclonal anti-actin to illustrate even loading.

[3] = test system: breast cancer HTB-22 cells; assay: Cell proliferation by cell-cycling markers Ki67 and PCNA (Western blots); assay type: cell-based, human; conditions: 0.1-5 nM; 4 days
Procedure: The effect of contact with Compound C0105 on cell proliferation was determined by the levels of cell-cycling markers: Ki67 and PCNA using Western blots in HTB-22 and control human mammary epithelial cells (HMECs). Cells treated with vehicle and 0.1-5 nM Compound C0105 for 4 days were collected, washed and solubilized. The resultant cell lysates were size-fractionated on SDS-PAGE and Western blotting to determine the levels of Ki67, PCNA and actin (loading control). The protein bands were quantified using densitometric scanning.
The effect of C0105 on cell proliferation was determined by the levels of cell-cycling markers Ki67 and PCNA using Western blots in HTB-22 and control HMECs. Cells contacted with vehicle and 0.1-5 nM Compound C0105 for 4 days were collected, washed and solubilized. […] The protein bands were quantified using densitometric scanning. […]
To study the effect of Compound C0105 on PI3K activity, the cancer and primary normal cells were cultured to approximately 60-70% confluency, serum deprived for 4 hours, briefly washed with PBS and treated with vehicle or 0.1, 0.5, 1 or 5 nM Compound C0105 for 24 hours with in 0.1% FBS-containing culture medium. […] The cell pellets were sonicated in ice-cold immunoprecipitation buffer and protein concentrations measured by the Bradford method. […]

[4] = test system: MiaPaCa2 pancreatic cancer cell implants; assay: Xenograft tumor volume study

CN1CCC2(CC1)NCC(=O)N2Cc1ccccc1 [Compound C0105] was tested, and the “Glucose uptake / glucose content” value (primary lung fibroblasts) was “not changed”, the Basal glucose uptake [1] was “no change” and the Basal glucose uptake [2] was “no effect”. The “Glucose deprivation-induced cell death by cleaved PARP-1 and caspase-3” value (melanoma cells) was “reduces glucose deprivation-induced cell death”, the “Cell proliferation (Ki67 and PCNA levels)” value [3] was “reduces cell proliferation” and the Tumor volume ([4]; 1 mg/kg twice daily orally for 20 days) was “arrested growth”. The Tumor volume ([4]; 10 mg/kg twice daily orally for 20 days) was “shrank tumors” and the “Vasculature of tumor masses” value ([4]; 1 or 10 mg/kg twice daily orally) was “visibly reduced the vasculature of tumor masses”.
